# Reference: patent publication EP1066315B1 (University of Dundee, priority 1998, dated 2008)
# Residues, ends and D or L forms follow the SMILES beside them. *: point of attachment. Fmoc = O=C(OCC1c2ccccc2-c2ccccc21)*
# Legend:
# [1] = tested on: Cathepsin S; assay: Hydrolysis of cathepsin S substrate by B cell lysosomal fractions; format: biochemical, human; conditions: Fig 3b
# Method: (§1) The invention will now be described by reference to the following Examples and Figures wherein • Figure 1: Processing of TTCF by a leupeptin-insensitive cysteine endopeptidase activity. (a) TTCF was digested in vitro in the presence of disrupted lysosomes (1-2 µg) in the presence or absence of iodoacetamide (1 mM), leupeptin, E64 or pepstatin (each at 0.1 mg/ml). Digestions were in 0.1 M NH4 acetate at pH 4.5 or Na2HPO4, pH 6.0 or 7.0. After 4 hours at 37°C, the reactions were separated by Tris-tricine SDS-PAGE and stained with Coomassie Blue. (b) Cleavage sites: TTCF digestion products were separated by SDS PAGE and electrophoretically transferred to nitrocellulose membrane. Individual fragments numbered 1-6 were subjected to 5 cycles of Edman degradation. N-terminal sequence obtained is shown in bold following upstream residues from TTCF (tetanus toxin numbering). […] (c) Each fraction was analysed by SDS-PAGE and Western blotting. […] Release of 7-amino-4-methyl coumarin was measured after 10, 20 or 30 minutes. […] At different times the cells were washed, fixed in 0.05 % glutaraldehyde and antigen presentation measured using proliferation of different autologous TTCF-specific T cell clones. c, AEP pre-processing of TTCF speeds antigen presentation. […] Presentation was measured after 60 minutes of antigen pulsing using EBV B cells. […]
# [2] = tested on: purified AEP (legumain from pig kidney); assay: Digestion of TTCF with purified AEP in the presence of tetrapeptides; format: biochemical; conditions: 0.2 mg/ml peptide; Fig 3a
# Method: The invention will now be described by reference to the following Examples and Figures wherein • Figure 1: Processing of TTCF by a leupeptin-insensitive cysteine endopeptidase activity. (a) TTCF was digested in vitro in the presence of disrupted lysosomes (1-2 µg) in the presence or absence of iodoacetamide (1 mM), leupeptin, E64 or pepstatin (each at 0.1 mg/ml). Digestions were in 0.1 M NH4 acetate at pH 4.5 or Na2HPO4, pH 6.0 or 7.0. After 4 hours at 37°C, the reactions were separated by Tris-tricine SDS-PAGE and stained with Coomassie Blue. (b) Cleavage sites: TTCF digestion products were separated by SDS PAGE and electrophoretically transferred to nitrocellulose membrane. Individual fragments numbered 1-6 were subjected to 5 cycles of Edman degradation. N-terminal sequence obtained is shown in bold following upstream residues from TTCF (tetanus toxin numbering). The N-terminal sequence of His-tagged TTCF was obtained for fragments 1 and 3. (c) Residues Asn 1184 and Glu 1184 in TTCF were mutated to alanine (see Methods) and digestions performed as before. The mutation abolishes cleavage at the mutated site but not at the first site (doublet at 47 kD). In this experiment cleavage of the third site was minimal. • Figure 2: TTCF is processed by an asparaginyl endopeptidase. (a) Chromatography of the TTCF processing activity on Mono-S resin. Fractions eluted by NaCl gradient were incubated with the substrates Z-Ala-Ala-Asn-NHMec or Z-Phe-Arg-NHMec in the presence or absence of E64 (trans-epoxysuccinyl-L-leucylamido-(4-guanidino)butane). […] (b) Fractions as above were incubated with 10 µg TTCF in the presence or absence of E64 for 4 hours at 37°C prior to SDS-PAGE analysis. (c) Each fraction was analysed by SDS-PAGE and Western blotting. Electrophoretically transferred material was probed with an affinity purified antiserum raised against the peptide KGIGSGKVLKSGPQC from human legumain^1. • Figure 3: Peptide inhibitors of AEP block asparaginyl endopeptidase activity and TTCF processing in vitro and in vivo. […] Release of 7-amino-4-methyl coumarin was measured after 10, 20 or 30 minutes. […] At different times the cells were washed, fixed in 0.05 % glutaraldehyde and antigen presentation measured using proliferation of different autologous TTCF-specific T cell clones. c, AEP pre-processing of TTCF speeds antigen presentation. […] Presentation was measured after 60 minutes of antigen pulsing using EBV B cells.
# We decided to test the possibility that high concentrations of asparagine containing peptides might act as competitive inhibitors. […] To establish that inhibition of AEP was specific, we measured the hydrolysis of different synthetic peptide substrates in the presence and absence of these tetrapeptides.
# [3] = tested on: Human B-cell AEP; assay: Digestion of TTCF by human B-cell AEP in the presence of tetrapeptides; format: biochemical; conditions: Fig 3d
# [4] = tested on: cathepsin L/B; assay: Hydrolysis of cathepsin L/B substrate Z-Phe-Arg-NHMec by B cell lysosomal fractions; format: biochemical, human; conditions: Fig 3b
# Method: as §1
# [5] = tested on: AEP; assay: Hydrolysis of asparagine peptide substrate by B cell lysosomal fractions; format: biochemical, human; conditions: increasing concentrations of peptide, Fig 3b
# Method: as §1
smiles,measurement,setting,value
"C[C@H](NC(=O)OCC1c2ccccc2-c2ccccc21)C(=O)N[C@@H](CCC(=O)O)C(=O)N[C@@H](CC(N)=O)C(=O)N[C@@H](CCCCN)C(N)=O [AENK, Ala-Glu-Asn-Lys-NH] (Fmoc-AENK-NH2)",hydrolysis of the Cathepsin S substrate Z-Val-Val-Arg-HNMec,[1],had no effect
same,inhibition of processing of TTCF by AEP,[2],substantially inhibited
same,inhibition of TTCF digestion by human B-cell AEP,[3],inhibited
same,"hydrolysis of the cathepsin L/B substrate, Z-Phe-Arg-NHMec",[4],had no effect
same,cleavage of Z-Val-Ala-Asn-NHMec,[5],completely blocked
